Laboratory results published in patent publication US8630703B2, “Treatment utilizing hydrophobic weak bases chemotherapeutic agents and illumination” (Technion Research & Development Foundation Limited, priority 2011, dated 2014).
Several values for one entry are separate records, joined by “and”; a condition that tells them apart may be missing. Equal values may be shown once.

What was measured:
A549/K1.5 cells [1] = test: XTT cytotoxicity assay with and without illumination; type: cell-based, Human
Protocol: Human non-small cell lung cancer A549 cells and their ABCG2-overexpressing MDR (multi-drug resistant) A549/K1.5 sub-line; ovarian carcinoma cell line 2008 and its stable MRP1-transfectant 2008/MRP1; and human non-small lung cancer cell line SW1573 and its ABCB1-overexpressing subline SW1573/2R160) were maintained in RPMI-1640 medium supplemented with 10% fetal bovine serum, 2 mM glutamine, 100 μg/ml penicillin and streptomycin (Biological Industries, Beth-Haemek, Israel) in a humid atmosphere containing 5% CO2 at 37° C.
(§7) Parental cells and their MDR (multi-drug resistant) sub-lines were seeded in 96-well plates (2×10^4 cells/well in 90 μl growth medium/well). […] Following incubation for 2 hours, the drug-containing medium was replaced by drug-free medium. The cells were then placed on an illuminator plate (Model 460, thin line series, S&S X-Ray Products Inc., Brooklyn, N.Y.) for 1 hour, thereby achieving a light dose of 5 J/cm^2 white light. After illumination, plates were further incubated for an additional 24 hours.
Cell viability was determined using an XTT (2,3-bis-(2-methoxy-4-nitro-5-sulfophenyl)-2H-tetrazolium-5-carboxanilide) Cell Proliferation Kit (Biological Industries). The drug concentrations required to inhibit cell growth by 50% (i.e., IC50 values) were determined from the cell survival curves in the absence and in the presence of illumination. Results are presented as mean values of at least three independent experiments.

A549 cells [2] = test: Live cell fluorescent imaging (lysosomal localization and photodestruction); type: cell-based, Human; details: 470 nm microscope illumination
Protocol: (§1) Lysosomes and mitochondria were stained by incubating the cells 100 nM LysoTracker® Red or 100 nM MitoTracker® Red, respectively, for 1 hour. For subcellular localization of C-1330, cells were also stained with 10 μM C-1330 for 30 minutes.
(§2) Nuclear staining was performed prior to fluorescence imaging by replacing the growth medium with medium containing 2 μg/ml Hoechst 33342, followed by incubation for 10 minutes. Prior to nuclear staining, A549/K1.5 cells were incubated for 1 hour with 10 μM fumitremorgin C (FTC) to prevent efflux of Hoechst 33342 by ABCG2.
(§3) Live cell fluorescent imaging was performed using an Axiovert 200 inverted fluorescence microscope (Carl Zeiss) equipped with a digital camera. […] Light intensity was maintained at 12.5% of the maximum. The magnification used was ×630.
(§4) Cells were pre-incubated with 10 mM ammonium chloride for 30 minutes or with 1 μM bafilomycin A1 for 60 minutes, prior to being incubated with 10 μM C-1330 for 30 minutes as described hereinabove. Ammonium chloride and bafilomycin A1 remained present during the incubation with C-1330.
Monolayers of A549 cells were grown in glass-bottom plates and were washed in growth medium. The medium was then replaced with a special isotonic balanced salt solution lacking or containing either N,N′-dimethylthiourea (DMTU), a potent hydroxyl radical and hydrogen peroxide scavenger, L-histidine, a hydroxyl radical and singlet oxygen radical (^1O2) scavenger, or sodium azide, a singlet oxygen radical scavenger. The salt solution consisted of 10 mM HEPES pH 7.4, 120 mM NaCl, 5 mM KCl, 1 mM CaCl2, 1 mM MgCl2, and 25 mM glucose. After incubation for 1 hour, C-1330 was added to the aforementioned solution buffer for an additional 30 minutes, during which the scavengers remained present, in order to load lysosomes. The cells were then examined by fluorescent imaging as described hereinabove.

A549 cells [3] = test: Texas Red-phalloidin staining of F-actin; type: cell-based, Human; details: 10 μM 30 minutes
Protocol: A549 cells were grown on coverslips in 24-well plates until confluence was reached. Cells were then incubated with 10 μM C-1330 for 30 minutes and then exposed to light for 1 minute, in order to achieve lysosomal photodestruction. Control cells were loaded with C-1330 but were not illuminated. C1330-loaded cells were ether fixed and stained with Texas Red®-X Phalloidin (Life Technologies) with no illumination or stained with Texas Red®-X Phalloidin 2 hours after illumination. Cells were then washed twice with PBS and fixed by adding 4% formaldehyde for 10 minutes at room temperature. Following two additional washes with PBS, 0.1% Triton X-100 was added for 10 minutes, and then washed twice to remove the Triton X-100. Blocking was then achieved using a solution of 20% skim milk and 2.5% fetal calf serum for 20 minutes. At this stage, 5 μl of Texas Red®-X Phalloidin stock solution was added to 0.2 ml of PBS and the samples were incubated for 20 minutes while being protected from light. The samples were finally rinsed to remove excess Texas Red®-X Phalloidin. Coverslips were removed gently from wells and attached onto slides using Fluoromount-G. Fluorescent cells were analyzed by a fluorescence microscope, using an excitation wavelength of 545 nm and an emission wavelength of 605 nm.

A549 cells [4] = test: XTT cytotoxicity assay with and without illumination
Protocol: as §7
Cell viability was determined using an XTT (2,3-bis-(2-methoxy-4-nitro-5-sulfophenyl)-2H-tetrazolium-5-carboxanilide) Cell Proliferation Kit (Biological Industries). […] Results are presented as mean values of at least three independent experiments.

A549 cells [5] = test: XTT cytotoxicity of C-1330 after chloroquine treatment, with and without illumination; type: cell-based, Human; details: 24 hours
A549 cells [6] = test: as above; type: cell-based, Human
Protocol: A549 cells were seeded in 96-well plates at a concentration of 500 cells/well for the 48 hour chloroquine treatment, or at a concentration of 1000 cells/well for the 24 hour chloroquine treatment, in a total volume of 100 μl of medium per well. Following an overnight incubation, chloroquine was then added at the indicated concentrations for 24 or 48 hours. Lysosomes were then stained with LysoTracker® Red, detected by fluorescent imaging as described hereinabove, and quantified using EZQuant software. […]

A549/K1.5 cells [7] = test: Crystal violet staining of illuminated monolayers; type: cell-based, Human; details: 10 μM 30 min, 470 nm 1 minute, 48 hours after illumination
Protocol: (§5) A549 and A549/K1.5 cells were grown to full confluence on glass-bottom plates and loaded with 10 μM C-1330 for 30 minutes. Before illumination, the spent medium was replaced by fresh medium. Using the inverted fluorescence microscope as a source of illumination, each plate was illuminated for 1 minute at a wavelength of 470 nm, at an intensity of approximately 3 W/m^2. Cells were then incubated at 37° C. for an additional 48 hours. The cells were then washed twice with PBS, fixed with 70% methanol for 10 minutes and stained with a diluted dye solution (1:5) of crystal violet. Stained monolayer cells were then washed three times with double distilled water. Crystal violet-stained cells were then examined and photographed using an M80 binocular at a x8 magnification (Leica Microsystems GmbH), and by an inverted Cell-Observer microscope, at a x1000 magnification (Carl Zeiss).
(§6) Monolayers of A549 and A549/K1.5 cells were pulse-incubated with C-1330 for 30 minutes, washed with drug-free medium, subjected to illumination for 1 minute with a fluorescence microscope, and incubated for 48 additional hours in growth medium. The confluent monolayers were then washed with PBS, fixed with methanol, and stained with crystal violet. The monolayers were then examined by light microscopy.

A549 cells [8] = test: Crystal violet staining of illuminated monolayers; type: cell-based, Human; details: 10 μM 30 min, 470 nm 1 minute, 48 hours after illumination
Protocol: as §5, §6

A549/K1.5 cells [9] = test: Live cell fluorescent imaging (lysosomal localization and photodestruction); type: cell-based, Human; details: A549/K1.5; 470 nm microscope illumination
Protocol: as §1, §2, §3, §4
A549/K1.5 cells were incubated with 10 μM doxorubicin for 30 minutes, and then observed and illuminated (at 470 nm) by live cell fluorescent imaging as described in the Materials and Methods section. Upon illumination, the cells were photographed every second, in order to observe changes in the cells over time.

[10] = chloroquine 20 (μM), 24 hours, no illumination
[11] = chloroquine 20 (μM), 48 hours, no illumination

CCN(CC)CCNc1ccc2ncn3c4ccc(OC)cc4c(=O)c1c23 [C-1330] was tested. Which “difference in survival of illuminated and non-illuminated cells” value (A549/K1.5 cells [1]; A549/K1.5, 3 μM) did it give?
Its value is 59%.

What about the “cell death without illumination at the indicated concentration (LD10)” value (A549/K1.5 cells [1]; A549/K1.5, FIG. 9B dotted line, no illumination) of the same molecule?
Its value is “approximately 10%”.

What about the “cell death with illumination at the indicated concentration (LD70)” value (A549/K1.5 cells [1]; A549/K1.5, FIG. 9B dotted line, white light) of the same molecule?
The value was roughly 70%.

What about the Fold sensitization (A549/K1.5 cells [1]; A549/K1.5, control vs illumination) of the same molecule?
The Fold sensitization was 14.

And the “LD50 Control” value (A549/K1.5 cells [1]; A549/K1.5, no illumination)?
Its value is 12.269 ± 1.119 µM.

And the “Survival at 3000 nM Control” value (A549/K1.5 cells [1]; A549/K1.5, no illumination)?
The value was 87 ± 4%.

And the “LD50 Illumination” value (A549/K1.5 cells [1]; A549/K1.5, white light 1 hour (5 J/cm^2))?
The value was 850 ± 23 nM.

What about the “Survival at 3000 nM Illumination” value (A549/K1.5 cells [1]; A549/K1.5, white light illumination) of the same molecule?
Its value is 28 ± 1%.

What about the “resistance of A549/K1.5 cells compared to parental A549 cells” value (A549/K1.5 cells [1]; no illumination) of the same molecule?
Its value is 2.5 fold.

And the “lysosomal photodestruction upon blue light illumination” value (A549 cells [2])?
The value was “continuous disappearance of lysosomes”.

What about the “actin cytoskeleton after illumination” value (A549 cells [3]; 2 hours after illumination) of the same molecule?
The value was “devoid of cytoplasmic content and actin cytoskeleton”.

What about the “actin cytoskeleton without illumination” value (A549 cells [3]; no illumination) of the same molecule?
The value was “retained a normal actin cytoskeleton”.

What about the “difference in survival of illuminated and non-illuminated cells” value (A549 cells [4]; 3 μM) of the same molecule?
Its value is 29%.

And the Fold sensitization (A549 cells [4]; control vs illumination)?
Its Fold sensitization is 6.

And the “Survival at 3000 nM Control” value (A549 cells [4]; no illumination)?
Its value is 72% and 72 ± 5%.

And the “LD50 Control” value (A549 cells [4]; no illumination, 2 h drug, XTT 24 h later)?
The value was 5.023 ± 0.716 µM.

What about the “LD50 Illumination” value (A549 cells [4]; white light 1 hour (5 J/cm^2)) of the same molecule?
Its value is 842 ± 208 nM.

And the “Survival at 3000 nM Illumination” value (A549 cells [4]; white light illumination)?
The value was 43% and 43 ± 6%.

And the “C-1330 LD50 Illumination” value (A549 cells [5]; chloroquine 50 (μM))?
Its value is 0.637 ± 0.174 µM.

And the “Survival at 3000 nM Control” value (A549 cells [5]; chloroquine 50 (μM), no illumination)?
The value was 92 ± 7%.

And the “C-1330 LD50 Illumination” value (A549 cells [5]; chloroquine 100 (μM))?
The value was 0.498 ± 0.064 µM.

And the “C-1330 LD50 Control” value (A549 cells [5]; chloroquine 100 (μM), no illumination)?
The value was 15.048 ± 2.886 µM.

What about the “cell death without illumination at the indicated concentration (LD10)” value (A549 cells [6]; 20 μM chloroquine 48 hours, FIG. 12C dotted line, no illumination) of the same molecule?
The value was “approximately 10%”.

And the “cell death with illumination at the indicated concentration (LD90)” value (A549 cells [6]; 20 μM chloroquine 48 hours, FIG. 12C dotted line, white light)?
The value was roughly 90%.

What about the Fold sensitization (A549 cells [6]; chloroquine 20 (nM), 24 hours) of the same molecule?
The Fold sensitization was 23.

What about the Fold sensitization (A549 cells [6]; chloroquine 20 (nM), 48 hours) of the same molecule?
Its Fold sensitization is 49.

What about the “C-1330 LD50 Illumination” value (A549 cells [6]; chloroquine 20 (μM), 24 hours) of the same molecule?
Its value is 0.648 ± 0.065 µM.

What about the “Survival at 3000 nM Illumination” value (A549 cells [6]; chloroquine 20 (μM), 24 hours) of the same molecule?
The value was 29% and 29 ± 07%.

What about the “C-1330 LD50 Control” value (A549 cells [6]; [10]) of the same molecule?
The value was 15.222 ± 0.378 µM.

What about the “Survival at 3000 nM Control” value (A549 cells [6]; [10]) of the same molecule?
The value was 79% and 79 ± 5%.

What about the “C-1330 LD50 Illumination” value (A549 cells [6]; chloroquine 20 (μM), 48 hours) of the same molecule?
The value was 0.7 ± 0.043 µM.

What about the “Survival at 3000 nM Illumination” value (A549 cells [6]; chloroquine 20 (μM), 48 hours) of the same molecule?
The value was 9% and 9 ± 3%.

And the “C-1330 LD50 Control” value (A549 cells [6]; [11])?
Its value is 34.137 ± 3.084 µM.

What about the “Survival at 3000 nM Control” value (A549 cells [6]; [11]) of the same molecule?
The value was 88% and 88 ± 8%.

What about the Fold sensitization (A549 cells [6]; chloroquine 50 (nM), 24 hours) of the same molecule?
Its Fold sensitization is 31.

And the “Survival at 3000 nM Illumination” value (A549 cells [6]; chloroquine 50 (μM), 24 hours)?
The value was 23 ± 2%.

What about the “C-1330 LD50 Control” value (A549 cells [6]; chloroquine 50 (μM), 24 hours, no illumination) of the same molecule?
The value was 19.609 ± 2.454 µM.

What about the Fold sensitization (A549 cells [6]; chloroquine 100 (nM), 24 hours) of the same molecule?
The Fold sensitization was 30.

And the “Survival at 3000 nM Illumination” value (A549 cells [6]; chloroquine 100 (μM), 24 hours)?
The value was 19 ± 3%.

What about the “Survival at 3000 nM Control” value (A549 cells [6]; chloroquine 100 (μM), 24 hours, no illumination) of the same molecule?
The value was 90 ± 9%.

What about the “appearance of illuminated area of monolayer (crystal violet)” value (A549/K1.5 cells [7]) of the same molecule?
Its value is “region of lysed cells”.

What about the “appearance of illuminated area of monolayer (crystal violet)” value (A549 cells [8]) of the same molecule?
Its value is “region of lysed cells”.

What about the “lysosomal photodestruction upon blue light illumination” value (A549/K1.5 cells [9]) of the same molecule?
Its value is “continuous disappearance of lysosomes”.
